Data from ChEMBL document CHEMBL4806966, “Methods for treating centronuclear myopathy” (2020).
One block for each molecule: values may come before it.

Legend:
[1] = organism: Homo sapiens; test: Selectivity index, ratio of IC50 for human PIK3C2B to IC50 for PI3Kbeta (unknown origin)
[2] = molecular target: Phosphatidylinositol 4,5-bisphosphate 3-kinase catalytic subunit beta isoform (Homo sapiens, UniProt P42338); test: Inhibition of PI3Kbeta (unknown origin)
[3] = molecular target: T1, Phosphatidylinositol 4-phosphate 3-kinase C2 domain-containing subunit alpha (Homo sapiens, UniProt O00443); test: Inhibition of human PIK3C2A using phosphatidylinositol as substrate at 3.03 nM after 1 hr by TR-FRET based Adapta universal kinase assay relative to control
[4] = molecular target: T1, Phosphatidylinositol 4-phosphate 3-kinase C2 domain-containing subunit alpha; test: Inhibition of human PIK3C2A using phosphatidylinositol as substrate at 20000 nM after 1 hr by TR-FRET based Adapta universal kinase assay relative to control
[5] = molecular target: T1, Phosphatidylinositol 4-phosphate 3-kinase C2 domain-containing subunit alpha; test: Inhibition of human PIK3C2A using phosphatidylinositol as substrate at 9.1 nM after 1 hr by TR-FRET based Adapta universal kinase assay relative to control
[6] = molecular target: T1, Phosphatidylinositol 4-phosphate 3-kinase C2 domain-containing subunit alpha; test: Inhibition of human PIK3C2A using phosphatidylinositol as substrate at 741 nM after 1 hr by TR-FRET based Adapta universal kinase assay relative to control
[7] = molecular target: T1, Phosphatidylinositol 4-phosphate 3-kinase C2 domain-containing subunit alpha; test: Inhibition of human PIK3C2A using phosphatidylinositol as substrate at 247 nM after 1 hr by TR-FRET based Adapta universal kinase assay relative to control
[8] = molecular target: T1, Phosphatidylinositol 4-phosphate 3-kinase C2 domain-containing subunit alpha; test: Inhibition of human PIK3C2A using phosphatidylinositol as substrate at 27.3 nM after 1 hr by TR-FRET based Adapta universal kinase assay relative to control
[9] = molecular target: Phosphatidylinositol 4-phosphate 3-kinase C2 domain-containing subunit beta (Homo sapiens) (UniProt O00750); test: Inhibition of human PIK3C2B using phosphatidylinositol as substrate at 37 nM after 1 hr by TR-FRET based Adapta universal kinase assay
[10] = molecular target: T1, Phosphatidylinositol 4-phosphate 3-kinase C2 domain-containing subunit alpha; test: Inhibition of human PIK3C2A using phosphatidylinositol as substrate at 2222 nM after 1 hr by TR-FRET based Adapta universal kinase assay relative to control
[11] = molecular target: Phosphatidylinositol 4-phosphate 3-kinase C2 domain-containing subunit beta (Homo sapiens) (UniProt O00750); test: Inhibition of human PIK3C2B using phosphatidylinositol as substrate at 4.1 nM after 1 hr by TR-FRET based Adapta universal kinase assay
[12] = molecular target: Phosphatidylinositol 4-phosphate 3-kinase C2 domain-containing subunit beta (Homo sapiens) (UniProt O00750); test: Inhibition of human PIK3C2B using phosphatidylinositol as substrate at 111 nM after 1 hr by TR-FRET based Adapta universal kinase assay
[13] = molecular target: T1, Phosphatidylinositol 4-phosphate 3-kinase C2 domain-containing subunit alpha; test: Inhibition of human PIK3C2A using phosphatidylinositol as substrate and 10 uM ATP after 1 hr by TR-FRET based Adapta universal kinase assay
[14] = molecular target: Phosphatidylinositol 4-phosphate 3-kinase C2 domain-containing subunit beta (Homo sapiens) (UniProt O00750); test: Inhibition of human PIK3C2B using phosphatidylinositol as substrate at 333 nM after 1 hr by TR-FRET based Adapta universal kinase assay
[15] = molecular target: Phosphatidylinositol 4-phosphate 3-kinase C2 domain-containing subunit beta (Homo sapiens) (UniProt O00750); test: Inhibition of human PIK3C2B using phosphatidylinositol as substrate at 0.153 nM after 1 hr by TR-FRET based Adapta universal kinase assay
[16] = molecular target: Phosphatidylinositol 4-phosphate 3-kinase C2 domain-containing subunit beta (Homo sapiens) (UniProt O00750); test: Inhibition of human PIK3C2B using phosphatidylinositol as substrate at 1000 nM after 1 hr by TR-FRET based Adapta universal kinase assay
[17] = organism: Homo sapiens; test: Selectivity index, ratio of IC50 for human PIK3C2A to IC50 for human PIK3C2B
[18] = molecular target: Phosphatidylinositol 4-phosphate 3-kinase C2 domain-containing subunit beta (Homo sapiens) (UniProt O00750); test: Inhibition of human PIK3C2B using phosphatidylinositol as substrate at 12.3 nM after 1 hr by TR-FRET based Adapta universal kinase assay
[19] = molecular target: T1, Phosphatidylinositol 4-phosphate 3-kinase C2 domain-containing subunit alpha; test: Inhibition of human PIK3C2A using phosphatidylinositol as substrate at 6667 nM after 1 hr by TR-FRET based Adapta universal kinase assay relative to control
[20] = molecular target: Phosphatidylinositol 4-phosphate 3-kinase C2 domain-containing subunit beta (Homo sapiens) (UniProt O00750); test: Inhibition of human PIK3C2B using phosphatidylinositol as substrate at 0.46 nM after 1 hr by TR-FRET based Adapta universal kinase assay
[21] = molecular target: Phosphatidylinositol 4-phosphate 3-kinase C2 domain-containing subunit beta (Homo sapiens) (UniProt O00750); test: Inhibition of human PIK3C2B using phosphatidylinositol as substrate at 1.37 nM after 1 hr by TR-FRET based Adapta universal kinase assay
[22] = molecular target: Phosphatidylinositol 4-phosphate 3-kinase C2 domain-containing subunit beta (Homo sapiens) (UniProt O00750); test: Inhibition of human PIK3C2B using phosphatidylinositol as substrate at 0.051 nM after 1 hr by TR-FRET based Adapta universal kinase assay
[23] = molecular target: T1, Phosphatidylinositol 4-phosphate 3-kinase C2 domain-containing subunit alpha; test: Inhibition of human PIK3C2A using phosphatidylinositol as substrate at 82 nM after 1 hr by TR-FRET based Adapta universal kinase assay relative to control

Sequence of Phosphatidylinositol 4-phosphate 3-kinase C2 domain-containing subunit beta (Homo sapiens) (O00750 whole entry, the tested form may be a part): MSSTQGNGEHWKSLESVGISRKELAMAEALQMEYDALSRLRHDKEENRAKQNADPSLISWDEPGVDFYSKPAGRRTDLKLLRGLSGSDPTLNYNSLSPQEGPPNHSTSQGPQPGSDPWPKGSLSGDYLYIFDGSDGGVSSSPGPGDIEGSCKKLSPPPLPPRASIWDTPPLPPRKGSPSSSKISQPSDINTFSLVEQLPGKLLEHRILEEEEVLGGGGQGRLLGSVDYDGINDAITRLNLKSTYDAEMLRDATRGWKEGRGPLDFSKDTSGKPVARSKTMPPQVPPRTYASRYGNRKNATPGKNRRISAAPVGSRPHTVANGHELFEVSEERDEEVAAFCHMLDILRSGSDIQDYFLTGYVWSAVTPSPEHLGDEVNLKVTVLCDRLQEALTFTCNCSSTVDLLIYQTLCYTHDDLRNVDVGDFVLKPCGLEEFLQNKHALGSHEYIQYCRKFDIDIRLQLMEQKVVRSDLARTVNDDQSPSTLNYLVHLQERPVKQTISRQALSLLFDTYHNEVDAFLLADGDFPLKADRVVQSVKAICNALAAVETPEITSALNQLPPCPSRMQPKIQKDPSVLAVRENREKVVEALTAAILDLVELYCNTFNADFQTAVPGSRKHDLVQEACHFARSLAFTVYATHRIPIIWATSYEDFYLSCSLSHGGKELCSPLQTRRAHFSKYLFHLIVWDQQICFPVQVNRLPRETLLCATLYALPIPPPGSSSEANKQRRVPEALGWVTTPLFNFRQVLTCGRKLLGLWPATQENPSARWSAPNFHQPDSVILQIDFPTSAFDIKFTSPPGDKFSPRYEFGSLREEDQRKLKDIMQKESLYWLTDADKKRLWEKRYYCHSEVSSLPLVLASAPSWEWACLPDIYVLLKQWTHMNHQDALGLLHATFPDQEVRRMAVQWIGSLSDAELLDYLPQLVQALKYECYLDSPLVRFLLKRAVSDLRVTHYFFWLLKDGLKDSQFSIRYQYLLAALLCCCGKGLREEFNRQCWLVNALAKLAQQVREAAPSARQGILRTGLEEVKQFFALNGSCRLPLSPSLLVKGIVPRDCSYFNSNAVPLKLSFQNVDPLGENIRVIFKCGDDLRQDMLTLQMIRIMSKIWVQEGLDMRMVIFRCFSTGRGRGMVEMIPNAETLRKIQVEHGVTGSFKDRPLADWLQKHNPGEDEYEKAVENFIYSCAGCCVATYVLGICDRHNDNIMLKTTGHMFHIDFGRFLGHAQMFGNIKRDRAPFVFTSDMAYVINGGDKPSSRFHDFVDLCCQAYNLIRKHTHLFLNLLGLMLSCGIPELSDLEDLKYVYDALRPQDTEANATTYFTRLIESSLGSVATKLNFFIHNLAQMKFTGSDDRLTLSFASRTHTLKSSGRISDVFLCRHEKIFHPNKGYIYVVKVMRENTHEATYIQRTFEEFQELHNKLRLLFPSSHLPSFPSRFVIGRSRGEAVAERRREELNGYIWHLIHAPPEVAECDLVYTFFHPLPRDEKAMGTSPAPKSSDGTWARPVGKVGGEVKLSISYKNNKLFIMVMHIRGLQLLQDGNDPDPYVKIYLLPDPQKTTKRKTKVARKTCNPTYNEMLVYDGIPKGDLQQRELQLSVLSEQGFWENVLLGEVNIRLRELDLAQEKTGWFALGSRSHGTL
T1 sequence (O00443 whole entry, the tested form may be a part): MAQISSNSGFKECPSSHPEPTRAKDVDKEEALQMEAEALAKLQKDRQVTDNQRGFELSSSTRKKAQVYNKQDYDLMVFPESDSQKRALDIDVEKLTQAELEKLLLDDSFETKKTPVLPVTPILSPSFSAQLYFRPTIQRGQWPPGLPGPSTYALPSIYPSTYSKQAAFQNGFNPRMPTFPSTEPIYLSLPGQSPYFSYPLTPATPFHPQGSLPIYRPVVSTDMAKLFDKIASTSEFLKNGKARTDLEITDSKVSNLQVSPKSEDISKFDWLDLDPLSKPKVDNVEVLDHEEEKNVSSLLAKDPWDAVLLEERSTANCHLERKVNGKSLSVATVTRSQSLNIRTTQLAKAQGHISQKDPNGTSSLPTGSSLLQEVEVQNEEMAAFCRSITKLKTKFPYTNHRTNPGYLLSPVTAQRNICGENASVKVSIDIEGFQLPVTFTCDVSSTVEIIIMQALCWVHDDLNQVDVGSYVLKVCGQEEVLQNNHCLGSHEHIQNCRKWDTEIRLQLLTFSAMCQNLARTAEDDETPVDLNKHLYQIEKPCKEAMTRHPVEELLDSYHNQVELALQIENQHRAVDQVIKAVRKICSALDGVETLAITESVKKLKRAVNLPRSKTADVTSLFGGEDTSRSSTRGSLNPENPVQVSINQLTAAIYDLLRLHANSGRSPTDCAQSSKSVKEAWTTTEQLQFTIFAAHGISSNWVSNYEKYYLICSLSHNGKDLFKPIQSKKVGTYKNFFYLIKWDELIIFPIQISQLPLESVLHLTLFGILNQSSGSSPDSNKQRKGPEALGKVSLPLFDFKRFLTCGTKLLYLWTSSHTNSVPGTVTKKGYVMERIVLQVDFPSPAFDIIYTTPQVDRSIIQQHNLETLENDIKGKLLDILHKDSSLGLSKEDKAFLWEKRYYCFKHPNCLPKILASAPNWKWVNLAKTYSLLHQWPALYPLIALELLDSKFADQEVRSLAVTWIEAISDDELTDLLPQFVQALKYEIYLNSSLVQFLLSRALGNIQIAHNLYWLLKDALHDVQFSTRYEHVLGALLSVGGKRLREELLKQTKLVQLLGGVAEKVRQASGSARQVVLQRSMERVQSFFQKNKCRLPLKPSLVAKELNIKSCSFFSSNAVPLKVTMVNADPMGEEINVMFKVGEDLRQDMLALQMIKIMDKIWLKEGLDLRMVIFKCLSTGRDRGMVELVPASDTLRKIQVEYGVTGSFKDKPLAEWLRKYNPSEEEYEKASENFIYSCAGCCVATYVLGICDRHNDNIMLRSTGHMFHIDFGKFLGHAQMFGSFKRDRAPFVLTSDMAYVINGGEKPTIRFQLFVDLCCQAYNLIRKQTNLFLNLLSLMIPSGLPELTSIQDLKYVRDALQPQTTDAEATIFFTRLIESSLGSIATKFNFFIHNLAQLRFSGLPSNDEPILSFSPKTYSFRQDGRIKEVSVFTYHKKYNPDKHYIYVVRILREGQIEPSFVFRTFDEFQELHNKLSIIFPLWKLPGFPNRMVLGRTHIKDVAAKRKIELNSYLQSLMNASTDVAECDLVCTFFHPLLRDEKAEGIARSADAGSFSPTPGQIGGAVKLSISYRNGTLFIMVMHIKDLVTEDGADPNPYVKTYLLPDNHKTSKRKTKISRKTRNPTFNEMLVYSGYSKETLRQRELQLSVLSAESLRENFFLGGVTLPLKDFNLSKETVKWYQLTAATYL
Sequence of Phosphatidylinositol 4,5-bisphosphate 3-kinase catalytic subunit beta isoform (P42338 whole entry, the tested form may be a part, canonical isoform): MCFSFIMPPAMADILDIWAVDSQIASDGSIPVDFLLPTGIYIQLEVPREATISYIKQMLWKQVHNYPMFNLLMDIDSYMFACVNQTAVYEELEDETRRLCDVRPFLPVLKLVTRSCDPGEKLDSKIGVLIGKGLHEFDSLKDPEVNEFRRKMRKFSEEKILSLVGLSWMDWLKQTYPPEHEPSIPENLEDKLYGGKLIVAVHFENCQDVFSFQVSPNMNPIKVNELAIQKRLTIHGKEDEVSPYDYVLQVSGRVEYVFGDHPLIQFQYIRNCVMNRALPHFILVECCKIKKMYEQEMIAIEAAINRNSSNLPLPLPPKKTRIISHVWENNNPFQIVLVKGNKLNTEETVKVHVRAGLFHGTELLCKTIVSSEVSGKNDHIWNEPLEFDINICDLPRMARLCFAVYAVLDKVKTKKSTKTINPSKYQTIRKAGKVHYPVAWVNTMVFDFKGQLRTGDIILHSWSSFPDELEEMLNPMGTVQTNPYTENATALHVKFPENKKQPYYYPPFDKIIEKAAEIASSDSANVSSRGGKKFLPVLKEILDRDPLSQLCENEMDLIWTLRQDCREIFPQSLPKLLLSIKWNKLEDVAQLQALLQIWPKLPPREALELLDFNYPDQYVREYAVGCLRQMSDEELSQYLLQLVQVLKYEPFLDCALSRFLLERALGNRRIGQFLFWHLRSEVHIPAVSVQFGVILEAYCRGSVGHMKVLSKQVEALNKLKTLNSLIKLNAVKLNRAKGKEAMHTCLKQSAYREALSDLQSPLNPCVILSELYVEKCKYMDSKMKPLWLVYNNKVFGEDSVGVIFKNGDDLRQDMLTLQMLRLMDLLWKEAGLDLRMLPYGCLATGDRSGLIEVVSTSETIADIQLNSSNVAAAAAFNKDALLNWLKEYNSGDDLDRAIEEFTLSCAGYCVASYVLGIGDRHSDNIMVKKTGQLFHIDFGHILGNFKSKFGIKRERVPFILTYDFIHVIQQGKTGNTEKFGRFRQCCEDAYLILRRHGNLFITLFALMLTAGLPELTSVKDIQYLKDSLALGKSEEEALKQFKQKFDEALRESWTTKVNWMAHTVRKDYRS

Ratio IC50 [1]: 6
IC50 [2]: 0.016 µM
Structure (SMILES): Cc1c(Cn2c(C)nc(=O)c3sc(N4CCOCC4)nc32)cccc1C(F)(F)F

inhibition [3]: -3%
inhibition [4]: 78%
inhibition [5]: -3%
inhibition [6]: 17%
inhibition [7]: 6%
inhibition [8]: -4%
inhibition [9]: 74%
inhibition [10]: 36%
inhibition [11]: 27%
inhibition [12]: 90%
IC50 [13]: 9.57 µM
inhibition [14]: 93%
inhibition [15]: -3%
inhibition [16]: 93%
Ratio IC50 [17]: 449
inhibition [18]: 49%
inhibition [19]: 46%
inhibition [20]: 10%
inhibition [21]: 21%
inhibition [22]: 16%
inhibition [23]: 0%
Structure (SMILES): CN(C)C(=O)c1ccc2c(c1)c(C[C@H]1COCCN1c1nc3c(s1)C(=O)NC(C)(C)C3)cn2C
